Experimental data published in article PMC10340532, “MCAK Inhibitors Induce Aneuploidy in Triple-Negative Breast Cancer Models” (Cancers, 2023).

Molecular target: T1, MCAK (Homo sapiens, UniProt Q99661)
T1 construct: gene KIF2C
T1 sequence (Q99661 2-725): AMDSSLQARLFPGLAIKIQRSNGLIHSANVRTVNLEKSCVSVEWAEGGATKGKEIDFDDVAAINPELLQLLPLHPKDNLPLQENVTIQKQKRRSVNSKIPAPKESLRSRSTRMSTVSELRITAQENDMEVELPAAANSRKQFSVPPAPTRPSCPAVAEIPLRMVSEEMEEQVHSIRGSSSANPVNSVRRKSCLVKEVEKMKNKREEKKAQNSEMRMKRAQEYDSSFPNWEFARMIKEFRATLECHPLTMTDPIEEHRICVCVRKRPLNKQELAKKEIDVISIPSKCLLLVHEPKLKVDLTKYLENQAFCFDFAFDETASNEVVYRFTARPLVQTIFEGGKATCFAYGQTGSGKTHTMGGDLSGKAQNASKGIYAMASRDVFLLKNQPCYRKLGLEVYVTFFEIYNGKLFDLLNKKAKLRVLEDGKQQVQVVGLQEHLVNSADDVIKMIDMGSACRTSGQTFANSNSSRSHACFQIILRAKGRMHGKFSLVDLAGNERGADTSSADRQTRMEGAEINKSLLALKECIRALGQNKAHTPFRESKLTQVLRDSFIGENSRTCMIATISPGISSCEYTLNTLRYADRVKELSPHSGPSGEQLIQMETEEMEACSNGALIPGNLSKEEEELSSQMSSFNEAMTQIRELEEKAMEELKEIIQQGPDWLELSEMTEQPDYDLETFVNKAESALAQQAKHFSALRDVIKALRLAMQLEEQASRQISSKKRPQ
Test: sedimentation-based microtubule depolymerization assay with purified FMCAK; FRET conformation screen, FCP counter screen
Format: biochemical

CC(C)c1noc(C2CCCN2C(=O)c2cc(=O)c3ccccc3o2)n1 (stereo not shown) [H9, 2042 H9]
sedimentation-based microtubule depolymerization assay with purified FMCAK; FRET: 5 µM
